This is an account of results in patent US20250228835A1, “PYRIDINYLOXYPYRIDINES AND RELATED COMPOUNDS AND THEIR USE IN TREATING MEDICAL CONDITIONS” (Rectify Pharmaceuticals, Inc., priority 2024, published 2025).

Structures are written as SMILES. Bounds are passed on as bounds.

The target in this assay is T1, ABCC6 WT (Homo sapiens, UniProt O95255).
T1 construct: expressed in transfected cells; host or cells: HEK-293 (transient, Lipofectamine 2000)
Nature of the assay: ABCC6 WT assay: HiBit protein expression. The class given is cell-based. To be noted: HEK-293 cells transiently expressing HiBit-tagged ABCC6 WT; 24 h treatment; top concentration 20 μM; read-out: ABCC6 WT EC50, Emax. The method, boiled down:
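HEK-293 cells transiently transfected with HiBit-tagged human ABCC6 WT cDNA, seeded 24 h post-transfection, treated 24 h at 37° C with ten 2-fold doses (top 20 μM final, 0.15% DMSO). HiBit lytic luminescence reports protein expression; Emax and EC50 derived.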

T1 sequence (O95255 whole entry): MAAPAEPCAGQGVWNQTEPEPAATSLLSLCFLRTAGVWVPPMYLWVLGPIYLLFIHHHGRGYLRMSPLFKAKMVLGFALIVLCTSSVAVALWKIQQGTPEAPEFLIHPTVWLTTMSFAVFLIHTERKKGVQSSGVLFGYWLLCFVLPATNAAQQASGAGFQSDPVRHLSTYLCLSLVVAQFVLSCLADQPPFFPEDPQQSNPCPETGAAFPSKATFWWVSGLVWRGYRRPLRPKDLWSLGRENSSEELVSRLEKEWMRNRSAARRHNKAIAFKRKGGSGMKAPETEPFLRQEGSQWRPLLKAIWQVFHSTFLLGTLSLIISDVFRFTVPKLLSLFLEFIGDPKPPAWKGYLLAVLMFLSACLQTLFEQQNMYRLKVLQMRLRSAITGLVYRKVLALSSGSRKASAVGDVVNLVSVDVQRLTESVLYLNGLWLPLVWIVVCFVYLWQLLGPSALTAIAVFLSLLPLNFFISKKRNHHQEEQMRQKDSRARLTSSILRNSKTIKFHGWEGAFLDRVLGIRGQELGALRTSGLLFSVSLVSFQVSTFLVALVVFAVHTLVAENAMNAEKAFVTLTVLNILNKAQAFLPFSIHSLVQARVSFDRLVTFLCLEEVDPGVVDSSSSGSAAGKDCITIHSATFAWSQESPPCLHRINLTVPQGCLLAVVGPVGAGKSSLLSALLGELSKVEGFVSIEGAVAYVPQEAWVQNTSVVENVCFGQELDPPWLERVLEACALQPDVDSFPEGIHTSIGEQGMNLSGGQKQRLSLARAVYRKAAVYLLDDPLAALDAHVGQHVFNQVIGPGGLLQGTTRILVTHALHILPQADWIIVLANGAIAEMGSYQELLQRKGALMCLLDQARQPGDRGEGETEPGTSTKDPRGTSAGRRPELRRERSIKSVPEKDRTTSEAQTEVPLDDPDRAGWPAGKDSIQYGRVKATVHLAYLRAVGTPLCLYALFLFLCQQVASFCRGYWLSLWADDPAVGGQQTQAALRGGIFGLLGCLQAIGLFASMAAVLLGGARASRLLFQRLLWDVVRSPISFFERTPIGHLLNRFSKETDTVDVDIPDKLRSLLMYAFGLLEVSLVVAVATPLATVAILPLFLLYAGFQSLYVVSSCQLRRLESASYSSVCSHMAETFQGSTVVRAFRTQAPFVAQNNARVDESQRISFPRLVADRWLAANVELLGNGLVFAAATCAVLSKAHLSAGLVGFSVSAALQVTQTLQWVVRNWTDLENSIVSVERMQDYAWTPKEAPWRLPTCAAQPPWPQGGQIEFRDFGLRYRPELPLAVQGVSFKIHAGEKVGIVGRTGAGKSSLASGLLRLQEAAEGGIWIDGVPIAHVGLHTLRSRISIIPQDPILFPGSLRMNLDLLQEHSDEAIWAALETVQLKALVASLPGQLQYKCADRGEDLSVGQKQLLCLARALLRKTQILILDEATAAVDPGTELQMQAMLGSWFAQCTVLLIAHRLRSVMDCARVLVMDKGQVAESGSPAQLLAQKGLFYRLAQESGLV

As to `Cc1cc(C)c(Oc2nc(-c3cncc(Cl)c3)ccc2S(=O)(=O)NCc2ccccn2)c(C2CC2)c1` [Compound I-76], the EC50 (as a rule, the concentration at which the effect is half-maximal) was not below 25000 nM.

As to `Cc1cc(C)c(Oc2nc(-c3cncc(Cl)c3)ccc2N(C)S(C)(=O)=O)c(C)c1` [Compound I-48], the EC50 was less than 1000 nM.

For the compound `COC1CC(NS(=O)(=O)c2ccc(-c3cncc(Cl)c3)nc2Oc2c(C)cc(C)cc2C2CC2)C1` (stereo not drawn) [Compound I-74], the EC50 fell in the range of 1000 to 10000 nM.

For `Cc1cc(C)c(Oc2nc(-c3cncc(Cl)c3)ccc2S(=O)(=O)N[C@@H](c2ccccc2)C(F)(F)F)c(C)c1` [Compound I-83], the EC50 fell in the range of 1000 to 10000 nM.

In the case of `Cc1cc(C)c(Oc2nc(-c3ccc(C#N)nc3)ccc2NS(C)(=O)=O)c(C)c1` [Compound I-45], the EC50 is less than 1000 nM.

In the case of `CNS(=O)(=O)c1ccc(N2CCN(C)C(=O)C2)nc1Oc1c(C)cc(C)cc1C` [Compound I-92], the EC50 was in the range of 1000 to 10000 nM.

Take `CNS(=O)(=O)c1ccc(-c2cncc(Cl)c2)nc1Oc1c(C)cc(C)cc1C1CC1` [Compound I-77]: the EC50 was less than 1000 nM.

As to `Cc1cc(C)c(Oc2nc(-c3cncc(Cl)c3)ccc2S(=O)(=O)NCc2ccccn2)c(C)c1` [Compound I-86], the EC50 is 1000 to 10000 nM.

`CC(=O)NC1CN(c2ccc(NS(=O)(=O)c3cccnc3)c(Oc3c(C)cc(C)cc3C3CC3)n2)C1` [Compound I-50]: the EC50 was less than 25000 nM.

`Cc1cc(C)c(Oc2nc(-c3cncc(Cl)c3)ccc2NS(=O)(=O)C2CC2)c(C)c1` [Compound I-49]: the EC50 was less than 1000 nM.

As to `Cc1cc(C)c(Oc2nc(-c3cncc(Cl)c3)ccc2N2CCCCS2(=O)=O)c(C)c1` [Compound I-66], the EC50 was in the range of 1000 to 10000 nM.

`Cc1cc(C)c(Oc2nc(-c3cncc(Cl)c3)ccc2NS(C)(=O)=O)c(C2CC2)c1` [Compound I-57]: the EC50 is less than 1000 nM.

On to `Cc1cc(C)c(Oc2cc(-c3cncc(Cl)c3)ncc2NS(C)(=O)=O)c(C)c1` [Compound I-56], for which the EC50 was less than 1000 nM.

Turning to `Cc1cc(C)c(Oc2nc(N3CCN(S(=O)(=O)C4CC4)CC3)ccc2NS(C)(=O)=O)c(C)c1` [Compound I-44], the EC50 lay within 1000 to 10000 nM.

Consider `Cc1cc(C)c(Oc2nc(-c3cncc(Cl)c3)ccc2S(=O)(=O)NCc2ccccc2)c(C)c1` [Compound I-88], for which the EC50 lay in the range of 1000 to 10000 nM.

As to `Cc1cc(C)c(Oc2nc(-c3cncc(Cl)c3)ccc2N(C)S(=O)(=O)Cc2ccccc2)c(C)c1` [Compound I-64], the EC50 is less than 25000 nM.

Regarding `COc1ccc2nc[nH]c2c1S(=O)(=O)Nc1ccc(-c2cncc(Cl)c2)nc1Oc1c(C)cc(C)cc1C` [Compound I-63], the EC50 is less than 1000 nM.

In the case of `Cc1cc(C)c(Oc2nc(-c3cncc(Cl)c3)ccc2NS(C)(=O)=O)c(C)c1` [Compound I-55], the EC50 was less than 1000 nM.

Consider `Cc1cc(C)c(Oc2nc(-c3cncc(Cl)c3)ccc2NS(=O)(=O)C(C)(C)C)c(C)c1` [Compound I-68], for which the EC50 is not below 25000 nM.

Turning to `Cc1cc(C)c(Oc2nc(-c3cncc(Cl)c3)ccc2N(C2CC2)S(C)(=O)=O)c(C)c1` [Compound I-42], the EC50 fell in the range of 1000 to 10000 nM.

For `Cc1cc(C)c(Oc2nc(-c3cncc(Cl)c3)ccc2S(=O)(=O)N[C@H](c2ccccc2)C(F)(F)F)c(C)c1` [Compound I-81], the EC50 lay in the range of 1000 to 10000 nM.

Turning to `Cc1cc(C)c(Oc2nc(-c3cncc(Cl)c3)ccc2S(=O)(=O)Nc2cnn(C)c2)c(C)c1` [Compound I-94], the EC50 lay within 1000 to 10000 nM.

Take `Cc1cc(C)c(Oc2nc(-c3cncc(Cl)c3)ccc2N(C)S(=O)(=O)c2cccnc2)c(C2CC2)c1` [Compound I-53]: the EC50 is 1000 to 10000 nM.

As for `Cc1cc(C)c(Oc2cc(-c3cncc(Cl)c3)cnc2NS(C)(=O)=O)c(C)c1` [Compound I-60], the concentration for a half-maximal effect (EC50) was in the range of 1000 to 10000 nM.

For the compound `Cc1cc(C)c(Oc2nc(-c3cncc(Cl)c3)ccc2S(=O)(=O)N(C)Cc2ccccc2)c(C)c1` [Compound I-85], the EC50 was not below 25000 nM.

Regarding `CNS(=O)(=O)c1cnc(-c2cncc(Cl)c2)cc1Oc1c(C)cc(C)cc1C` [Compound I-84], the EC50 is not below 25000 nM.

On to `CNS(=O)(=O)c1ncc(-c2cncc(Cl)c2)nc1Oc1c(C)cc(C)c(Cl)c1C` [Compound I-89], for which the EC50 was less than 25000 nM.

On to `Cc1cc(C)c(Oc2cc(-c3cncc(Cl)c3)cnc2N(C)S(=O)(=O)c2cnn(C)c2)c(C)c1` [Compound I-59], for which the EC50 was not below 25000 nM.

For the compound `COC1CC(S(=O)(=O)Nc2ccc(-c3cncc(Cl)c3)nc2Oc2c(C)cc(C)cc2C)C1` (stereo not drawn) [Compound I-51], the EC50 was less than 1000 nM.

For `Cc1cc(C)c(Oc2nc(-c3cncc(Cl)c3)ccc2N(C)S(=O)(=O)c2cnn(C)c2)c(C)c1` [Compound I-70], the EC50 is less than 1000 nM.

For the compound `Cc1cc(C)c(Oc2nc(-c3cncc(Cl)c3)ccc2S(=O)(=O)NCc2cc(C(F)(F)F)ccn2)c(C)c1` [Compound I-87], the EC50 fell in the range of 1000 to 10000 nM.

As to `Cc1cc(C)c(Oc2nc(-c3cncc(Cl)c3)ccc2S(=O)(=O)Nc2cnn(C)c2)c(C2CC2)c1` [Compound I-75], the EC50 was less than 25000 nM.

`Cc1cc(C)c(Oc2nc(N3CCN(C(=O)C4CC4)CC3)ccc2NS(C)(=O)=O)c(C)c1` [Compound I-47]: the EC50 was 1000 to 10000 nM.

In the case of `Cc1cc(C)c(Oc2nc(-c3cncc(Cl)c3)ccc2N(C)S(=O)(=O)c2cnn(C)c2)c(C2CC2)c1` [Compound I-52], the EC50 is less than 1000 nM.

Regarding `Cc1cc(C)c(Oc2nc(-c3cn[nH]c3)ccc2NS(C)(=O)=O)c(C2CC2)c1` [Compound I-2], the EC50 lay within 10000 to 25000 nM.

Turning to `Cc1cc(C)c(Oc2nc(-c3cncc(Cl)c3)ccc2N(C)S(=O)(=O)c2cccnc2)c(C)c1` [Compound I-69], the EC50 is less than 1000 nM.

Regarding `Cc1cc(C)c(Oc2nc(-c3cncc(Cl)c3)ccc2NS(=O)(=O)c2cnn(C)c2)c(C)c1` [Compound I-72], the EC50 fell in the range of 1000 to 10000 nM.

Turning to `Cc1cc(C)c(Oc2nc(-c3cncc(Cl)c3)cnc2S(N)(=O)=O)c(C)c1Cl` [Compound I-90], the EC50 is less than 1000 nM.

As to `Cc1cc(C)c(Oc2cc(-c3cncc(Cl)c3)cnc2NS(=O)(=O)c2cnn(C)c2)c(C)c1` [Compound I-61], the EC50 lay within 1000 to 10000 nM.

Consider `Cc1cc(C)c(Oc2nc(-c3cncc(Cl)c3)ccc2NS(=O)(=O)c2cccnc2)c(C)c1` [Compound I-71], for which the EC50 was less than 1000 nM.

Regarding `Cc1cc(C)c(Oc2nc(N3CC4(C3)CN(S(=O)(=O)C3CC3)C4)ccc2NS(C)(=O)=O)c(C)c1` [Compound I-43], the EC50 was not below 25000 nM.

Turning to `Cc1cc(C)c(Oc2nc(-c3cncc(Cl)c3)ccc2NS(=O)(=O)c2cnn(C)c2)c(C2CC2)c1` [Compound I-58], the EC50 is less than 25000 nM.

In the case of `Cc1cc(C)c(Oc2nc(-c3cncc(Cl)c3)ccc2NS(=O)(=O)Cc2ccccn2)c(C)c1` [Compound I-62], the concentration for a half-maximal effect (EC50) is not below 25000 nM.

As for `Cc1cc(C)c(Oc2nc(-c3cncc(C(N)=O)c3)ccc2NS(C)(=O)=O)c(C2CC2)n1` [Compound I-1], the EC50 is less than 1000 nM.

Consider `Cc1cc(C)c(Oc2nc(-c3cncc(Cl)c3)ccc2S(=O)(=O)NC(c2ccccn2)C(F)(F)F)c(C)c1` (single isomer, unassigned) [Compound I-80], for which the EC50 was not below 25000 nM.

In the case of `Cc1cc(C)c(Oc2nc(-c3cncc(Cl)c3)ncc2S(N)(=O)=O)c(C)c1Cl` [Compound I-93], the EC50 was less than 25000 nM.

For the compound `Cc1cc(C)c(Oc2nc(-c3cncc(Cl)c3)ccc2N2CCCS2(=O)=O)c(C)c1` [Compound I-67], the EC50 fell in the range of 1000 to 10000 nM.

On to `Cc1cc(C)c(Oc2nc(-c3cncc(Cl)c3)ccc2NS(=O)(=O)c2cccnc2)c(C2CC2)c1` [Compound I-54], for which the EC50 is less than 1000 nM.

Regarding `Cc1cc(C)c(Oc2nc(-c3cncc(Cl)c3)ccc2NS(=O)(=O)Cc2ccccc2)c(C)c1` [Compound I-65], the EC50 is not below 25000 nM.

Take `COC1CC(NS(=O)(=O)c2ccc(-c3cncc(Cl)c3)nc2Oc2c(C)cc(C)cc2C)C1` (stereo not drawn) [Compound I-78]: the half-maximal effective concentration (EC50) is less than 1000 nM.

As for `Cc1cc(C)c(Oc2nc(-c3cncc(Cl)c3)ccc2S(=O)(=O)NC(c2ccccn2)C(F)(F)F)c(C)c1` (single isomer, unassigned) [Compound I-79], the EC50 lay within 1000 to 10000 nM.

Consider `CNS(=O)(=O)c1ccc(N2CCN(C(=O)C3CC3)CC2)nc1Oc1c(C)cc(C)cc1C` [Compound I-73], for which the EC50 was 1000 to 10000 nM.

As to `Cc1cc(C)c(Oc2nc(-c3cncc(Cl)c3)ccc2NS(C)(=O)=O)c(C)n1` [Compound I-46], the EC50 is less than 1000 nM.

For `Cc1ccc(Oc2nc(-c3cncc(C#N)c3)ccc2NS(C)(=O)=O)c(C)n1` [Compound I-3], the concentration giving a half-maximal response (EC50) was less than 1000 nM.
